# Test results from ChEMBL document CHEMBL1201862, “PubChem BioAssay data set” (2004).
#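 Values below derive from 48-hour exposures of cells grown in 96-well plates, with endpoints linearly interpolated between the two concentrations bracketing the appropriate inhibition level. At the GI50, growth is halved.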 Calls of active or inactive are those of the source. No stated cut-off is given here; in the data, active = GI50 up to about 1.1 µM and inactive = higher.
# Tests used:
# Assay in all cases: NCI tumour cell line growth inhibition, 48 h
# [1] = system: HOP-92
# [2] = system: SR
# [3] = system: UACC-62
# [4] = system: SK-OV-3
# [5] = system: SNB-19
# [6] = system: SF-295
# [7] = system: Hs-578T
# [8] = system: K562
# [9] = system: MDA-MB-435
# [10] = system: CAKI-1
# [11] = system: HCT-15
# [12] = system: NCI-H23
# [13] = system: A549
# [14] = system: NCI/ADR-RES
# [15] = system: RPMI-8226
# [16] = system: EKVX
# [17] = system: SF-539
# [18] = system: TK-10
# [19] = system: OVCAR-8
# [20] = system: BT-549
SMILES,GI50 [1],GI50 [2],GI50 [3],GI50 [4],GI50 [5],GI50 [6],GI50 [7],GI50 [8],GI50 [9],GI50 [10],GI50 [11],GI50 [12],GI50 [13],GI50 [14],GI50 [15],GI50 [16],GI50 [17],GI50 [18],GI50 [19],GI50 [20]
CN(C)CC1CCCc2ccccc2C1=O (stereo not given),16 µM (inactive),0.271 µM (active),2.31 µM (inactive),18.3 µM (inactive),13 µM (inactive),17.3 µM (inactive),3.93 µM (inactive),0.323 µM (active),0.897 µM (active),1.93 µM (inactive),1.79 µM,6.41 µM (inactive),20.3 µM (inactive),3.32 µM (inactive),0.0267 µM (active),1.85 µM (inactive),4.79 µM (inactive),3.83 µM (inactive),2.13 µM (inactive),5.06 µM (inactive)
CC1(C)C=C(S(=O)(=O)c2ccccc2)Oc2ccccc2O1,24.5 µM (inactive),41.9 µM (inactive),38.4 µM (inactive),60.3 µM (inactive),62.5 µM (inactive),33 µM (inactive),64.9 µM (inactive),29.8 µM (inactive),20.5 µM (inactive),69.2 µM (inactive),33.3 µM,41.3 µM (inactive),41 µM (inactive),52.1 µM (inactive),32.9 µM (inactive),23.1 µM (inactive),82.8 µM (inactive),6.7 µM (inactive),32.1 µM (inactive),42.7 µM (inactive)
CNC(=O)N(CCC#N)CCCN(C(=O)N(C)C)c1ccccc1,> 100 µM (inactive),14.5 µM (inactive),> 100 µM (inactive),> 100 µM (inactive),> 100 µM (inactive),> 100 µM (inactive),> 100 µM (inactive),> 100 µM (inactive),> 100 µM (inactive),> 100 µM (inactive),> 100 µM,> 100 µM (inactive),> 100 µM (inactive),> 100 µM (inactive),> 100 µM (inactive),> 100 µM (inactive),> 100 µM (inactive),> 100 µM (inactive),> 100 µM (inactive),> 100 µM (inactive)
COc1cc2c(c(O)c1C)C(=O)C(Cl)=CC2=O,4.71 µM (inactive),0.662 µM (active),7.23 µM (inactive),> 53.1 µM (inactive),42.3 µM (inactive),18.7 µM (inactive),30.5 µM (inactive),2.26 µM (inactive),7.46 µM (inactive),5.45 µM (inactive),11.5 µM,10.2 µM (inactive),22.1 µM (inactive),22.6 µM (inactive),6.35 µM (inactive),16 µM (inactive),18.1 µM (inactive),7.41 µM (inactive),18.8 µM (inactive),8.3 µM (inactive)
CCC1(O)C=CC(=O)C=C1,31.8 µM (inactive),36.8 µM (inactive),17.2 µM (inactive),38.5 µM (inactive),18.1 µM (inactive),33.9 µM (inactive),66.5 µM (inactive),39.5 µM (inactive),29 µM (inactive),31.4 µM (inactive),17.9 µM,24.9 µM (inactive),31.6 µM (inactive),24 µM (inactive),32.4 µM (inactive),55.1 µM (inactive),0.0422 µM (active),21.1 µM (inactive),26.7 µM (inactive),43.5 µM (inactive)
CN(C)c1cccc(F)c1C(=O)NC(=O)Nc1ccc(Cl)cc1,27.4 µM (inactive),0.218 µM (active),2.38 µM (inactive),3.75 µM (inactive),> 26.1 µM (inactive),1.55 µM (inactive),2.21 µM (inactive),0.479 µM (active),0.118 µM (active),3.78 µM (inactive),0.579 µM,6.34 µM (inactive),5.48 µM (inactive),3.21 µM (inactive),1.81 µM (inactive),4.29 µM (inactive),3.15 µM (inactive),> 100 µM (inactive),5.19 µM (inactive),8.95 µM (inactive)
C#C[C@]1(O)CC[C@H]2[C@@H]3CCC4=C/C(=N\OCCN5CCCC5)CC[C@]4(C)[C@H]3CC[C@@]21C,29.1 µM (inactive),2.96 µM (inactive),10.4 µM (inactive),19.5 µM (inactive),15.3 µM (inactive),3.72 µM (inactive),6.25 µM (inactive),5.12 µM (inactive),3 µM (inactive),12.4 µM (inactive),13.2 µM,12 µM (inactive),15.7 µM (inactive),9.95 µM (inactive),3.34 µM (inactive),12.9 µM (inactive),7.46 µM (inactive),17.1 µM (inactive),17.1 µM (inactive),16.3 µM (inactive)
Nc1c(S(=O)(=O)O)cc(Nc2cccc(S(=O)(=O)/C=C/S(=O)(=O)O)c2)c2c1C(=O)c1ccccc1C2=O,> 100 µM (inactive),> 100 µM (inactive),> 100 µM (inactive),> 100 µM (inactive),> 100 µM (inactive),> 100 µM (inactive),73.3 µM (inactive),> 100 µM (inactive),> 100 µM (inactive),> 100 µM (inactive),> 100 µM,> 100 µM (inactive),> 100 µM (inactive),> 100 µM (inactive),> 100 µM (inactive),> 100 µM (inactive),> 100 µM (inactive),> 100 µM (inactive),> 100 µM (inactive),> 100 µM (inactive)
O=C(c1ccccc1)c1ccc(-n2c3ccccc3c3ccc4c(c32)C(=O)C=CC4=O)cc1,3.48 µM (inactive),3.15 µM (inactive),13.1 µM (inactive),20.9 µM (inactive),20.9 µM (inactive),15.7 µM (inactive),23.4 µM (inactive),3.4 µM (inactive),6.01 µM (inactive),2.07 µM (inactive),11.3 µM,12.8 µM (inactive),18.5 µM (inactive),18.8 µM (inactive),6.17 µM (inactive),11 µM (inactive),10.4 µM (inactive),12.7 µM (inactive),7.24 µM (inactive),20.3 µM (inactive)
C[S+]([O-])c1cc(=O)c2ccccc2s1 (stereo not given),2.94 µM (inactive),1.56 µM (inactive),7.31 µM (inactive),24.5 µM (inactive),18.4 µM (inactive),17 µM (inactive),25.4 µM (inactive),1.82 µM (inactive),5.14 µM (inactive),3.09 µM (inactive),3.03 µM,6.19 µM (inactive),18.5 µM (inactive),16.7 µM (inactive),2.9 µM (inactive),5.71 µM (inactive),9.12 µM (inactive),6.68 µM (inactive),3.6 µM (inactive),14.5 µM (inactive)
COc1cc(-c2cc(=O)c3c(OC)c(OC)c(OC)cc3o2)c(OC)c(OC)c1OC,14 µM (inactive),63.1 µM (inactive),42.5 µM (inactive),> 75 µM (inactive),> 75 µM (inactive),> 75 µM (inactive),> 75 µM (inactive),39.1 µM (inactive),> 75 µM (inactive),> 75 µM (inactive),> 75 µM,> 75 µM (inactive),> 75 µM (inactive),36.9 µM (inactive),25 µM (inactive),> 75 µM (inactive),> 75 µM (inactive),> 75 µM (inactive),> 75 µM (inactive),51.5 µM (inactive)
N#Cc1nc(-c2ccc(-c3nc(C#N)c(N)o3)cc2)oc1N,> 10 µM (inactive),> 10 µM (inactive),> 10 µM (inactive),> 10 µM (inactive),> 10 µM (inactive),> 10 µM (inactive),> 10 µM (inactive),> 10 µM (inactive),> 10 µM (inactive),> 10 µM (inactive),> 10 µM,> 10 µM (inactive),> 10 µM (inactive),> 10 µM (inactive),> 10 µM (inactive),> 10 µM (inactive),> 10 µM (inactive),> 10 µM (inactive),> 10 µM (inactive),> 10 µM (inactive)
C#CCn1c(=O)c(Cl)cn(/C(=C/C(=O)OCC)C(=O)OCC)c1=O,9.77 µM (inactive),2.32 µM (inactive),15.8 µM (inactive),31.6 µM (inactive),39.8 µM (inactive),> 47.5 µM (inactive),42.9 µM (inactive),1.7 µM (inactive),18 µM (inactive),2.99 µM (inactive),6.79 µM,18.5 µM (inactive),25 µM (inactive),26 µM (inactive),1.91 µM (inactive),16.1 µM (inactive),6.11 µM (inactive),2.43 µM (inactive),5.48 µM (inactive),18.5 µM (inactive)
COc1ccc(NC(=O)CC(=O)NN)cc1,64 µM (inactive),> 100 µM (inactive),> 100 µM (inactive),> 100 µM (inactive),> 100 µM (inactive),> 100 µM (inactive),> 100 µM (inactive),> 100 µM (inactive),> 100 µM (inactive),> 100 µM (inactive),> 100 µM,> 100 µM (inactive),> 100 µM (inactive),> 100 µM (inactive),> 100 µM (inactive),> 100 µM (inactive),> 100 µM (inactive),> 100 µM (inactive),> 100 µM (inactive),> 100 µM (inactive)
